These results are taken from ChEMBL document CHEMBL3632483, “Synthesis and pharmacological evaluation of piperidine (piperazine)-substituted benzoxazole derivatives as multi-target antipsychotics” (Bioorg Med Chem Lett, 2015).

For data set [1], the system named is Mus musculus. The data set can be described thus: Neurotoxicity in Chinese Kun Ming mouse assessed as locomotor activity by measuring total distance traveled at 1 mg/kg, po administered 1 hr before test measured for 10 mins (reference value: 13263.8 +/- 8034.2 millimeter). The data set is classed as toxicity, organism-based. The settings on record: in vivo.
Data set [2] deals with Mus musculus. Nature of the data set: Antipsychotic activity in po dosed Chinese Kun Ming mouse assessed as inhibition of DOI-induced head twitch administered 60 mins before DOI challenge measured up to 15 mins. Format: functional.
Data set [3] relates to Mus musculus. Nature of the data set: Antipsychotic activity in Chinese Kun Ming mouse assessed as inhibition of apomorphine-induced climbing behaviour at 1 mg/kg, po administered 30 mins before apomorphine challenge measured up to 30 mins. The data set is classed as functional, organism-based.
The test system of data set [4] is Mus musculus. Nature of the data set: Antipsychotic activity in Chinese Kun Ming mouse assessed as inhibition of apomorphine-induced reaching behaviour at 1 mg/kg, po administered 30 mins before apomorphine challenge measured up to 30 mins. The data set is classed as functional, organism-based.
For a further data set, the target named is Histamine H1 receptor (Cavia porcellus, UniProt P31389). Nature of the data set: Displacement of [3H]mepyramine from histamine H1 receptor in guinea pig cerebellum homogenates after 60 mins by liquid scintillation counting. A general note: In a radioligand displacement assay an active substance lowers the binding of a labelled ligand.
Chain of Histamine H1 receptor (P31389 whole entry): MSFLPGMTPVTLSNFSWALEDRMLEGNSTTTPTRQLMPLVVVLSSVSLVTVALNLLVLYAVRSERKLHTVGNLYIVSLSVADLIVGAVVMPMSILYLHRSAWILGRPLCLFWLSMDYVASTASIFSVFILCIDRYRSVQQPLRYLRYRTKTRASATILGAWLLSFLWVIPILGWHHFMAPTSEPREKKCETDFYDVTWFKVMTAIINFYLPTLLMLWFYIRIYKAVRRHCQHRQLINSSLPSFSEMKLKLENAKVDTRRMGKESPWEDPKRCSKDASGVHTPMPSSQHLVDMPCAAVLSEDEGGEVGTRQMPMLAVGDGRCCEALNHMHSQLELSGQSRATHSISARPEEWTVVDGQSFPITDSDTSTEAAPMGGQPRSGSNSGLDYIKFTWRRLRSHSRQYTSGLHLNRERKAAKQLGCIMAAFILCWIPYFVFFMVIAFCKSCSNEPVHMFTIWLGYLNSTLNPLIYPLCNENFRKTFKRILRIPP
For data set [5], the system named is Mus musculus. Nature of the data set: Antipsychotic activity in po dosed Chinese Kun Ming mouse assessed as inhibition of apomorphine-induced climbing administered 30 mins before apomorphine challenge measured up to 30 mins. Format: functional.
Data set [6] concerns the target T1, Adrenergic receptor alpha-1 (Rattus norvegicus, UniProt P15823+P23944+P43140).
T1 sequence (P15823 whole entry): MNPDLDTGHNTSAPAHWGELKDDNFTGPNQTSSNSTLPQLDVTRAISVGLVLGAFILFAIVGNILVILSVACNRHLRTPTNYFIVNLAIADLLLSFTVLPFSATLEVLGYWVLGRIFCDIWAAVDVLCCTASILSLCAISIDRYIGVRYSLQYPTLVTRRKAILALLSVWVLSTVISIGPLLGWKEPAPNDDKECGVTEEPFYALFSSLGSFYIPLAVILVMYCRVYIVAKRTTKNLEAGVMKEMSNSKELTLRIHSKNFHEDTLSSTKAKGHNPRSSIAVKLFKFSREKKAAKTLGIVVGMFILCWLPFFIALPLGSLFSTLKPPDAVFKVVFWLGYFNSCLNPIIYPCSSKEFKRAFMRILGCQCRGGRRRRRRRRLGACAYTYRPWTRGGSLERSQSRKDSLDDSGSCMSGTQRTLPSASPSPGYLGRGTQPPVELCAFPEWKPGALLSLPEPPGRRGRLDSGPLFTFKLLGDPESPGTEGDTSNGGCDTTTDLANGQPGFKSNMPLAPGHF
T1 sequence (P23944 whole entry): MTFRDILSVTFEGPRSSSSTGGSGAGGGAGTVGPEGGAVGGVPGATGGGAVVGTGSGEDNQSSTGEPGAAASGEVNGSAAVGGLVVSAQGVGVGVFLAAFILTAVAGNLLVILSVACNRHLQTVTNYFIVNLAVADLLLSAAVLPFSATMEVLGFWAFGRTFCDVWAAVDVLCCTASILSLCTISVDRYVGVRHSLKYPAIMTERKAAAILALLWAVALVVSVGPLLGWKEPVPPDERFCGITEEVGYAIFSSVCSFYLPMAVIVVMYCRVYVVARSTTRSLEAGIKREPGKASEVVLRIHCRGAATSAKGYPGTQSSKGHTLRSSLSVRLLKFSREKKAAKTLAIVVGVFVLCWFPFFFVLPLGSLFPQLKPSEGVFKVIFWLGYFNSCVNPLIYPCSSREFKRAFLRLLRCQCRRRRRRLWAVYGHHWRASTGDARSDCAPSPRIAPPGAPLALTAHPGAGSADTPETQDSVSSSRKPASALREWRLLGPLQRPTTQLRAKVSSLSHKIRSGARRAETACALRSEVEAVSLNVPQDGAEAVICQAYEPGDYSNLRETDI
T1 sequence (P43140 whole entry): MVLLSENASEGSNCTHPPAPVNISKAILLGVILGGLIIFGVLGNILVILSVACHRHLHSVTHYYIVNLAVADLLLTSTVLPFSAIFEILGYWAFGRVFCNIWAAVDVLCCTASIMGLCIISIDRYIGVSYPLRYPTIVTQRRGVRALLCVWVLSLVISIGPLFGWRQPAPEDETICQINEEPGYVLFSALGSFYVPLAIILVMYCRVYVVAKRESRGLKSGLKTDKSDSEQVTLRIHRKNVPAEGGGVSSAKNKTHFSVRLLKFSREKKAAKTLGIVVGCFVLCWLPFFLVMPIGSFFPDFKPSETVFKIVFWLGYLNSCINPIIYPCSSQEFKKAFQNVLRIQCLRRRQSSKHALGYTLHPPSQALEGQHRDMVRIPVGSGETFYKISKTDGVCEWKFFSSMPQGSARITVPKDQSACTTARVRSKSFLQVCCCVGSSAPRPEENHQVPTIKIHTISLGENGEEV
The data set can be described thus: Displacement of [3H]prazosin from adrenergic alpha1 receptor in rat cerebral cortex homogenates after 60 mins by liquid scintillation counting. The data set is classed as tissue-based.

Data set [7] relates to Mus musculus. Nature of the data set: Neurotoxicity in Chinese Kun Ming mouse assessed as locomotor activity by measuring total distance traveled at 3 mg/kg, po administered 1 hr before test measured for 10 mins (reference value: 13263.8 +/- 8034.2 millimeter). The data set is classed as toxicity, organism-based. Conditions: in vivo.
The subject of data set [8] is Mus musculus. The data set can be described thus: Neurotoxicity in Chinese Kun Ming mouse assessed as locomotor activity by measuring total distance traveled at 10 mg/kg, po administered 1 hr before test measured for 10 mins (reference value: 13263.8 +/- 8034.2 millimeter). Format: toxicity, organism-based. Conditions: in vivo.
The test system of data set [9] is Mus musculus. Nature of the data set: Toxicity in po dosed Chinese Kun Ming mouse assessed as induction of catalepsy by measuring immobility score of 30 seconds administered 30 mins before first assessment. Format: organism-based. The settings on record: in vivo, 0.5 h.

Broadly, the ED50 is the dose that gives a 50% effect, or the effect in half of the subjects. One may read the Ki as a dissociation constant, usually derived from enzyme kinetics or from competition with a known ligand. Low readings indicate a stronger hold on the target, high ones a looser hold on the target.

The source made the active and inactive calls. No cut-off for these calls is given here.

On to `Fc1ccc2c(C3CCN(CCCOc4ccc(Cc5nc6ccccc6o5)cc4)CC3)noc2c1`, for which the Activity in the data set on Mus musculus [1] worked out at 13046.7 mm; in the data set on Mus musculus [7] it was 10447.5 mm; with Mus musculus [8] it was 9492.4 mm. Moreover, the ED50 in the data set with Mus musculus [2] came out at 0.71 mg/kg; in the data set on Mus musculus [5], 0.86 mg/kg; in the data set on Mus musculus [9], 70.5 mg/kg. The inhibition entry in the data set with Mus musculus [2] was “Dose-dependent effect”. The inhibition result with Mus musculus [3] and with Mus musculus [4] was “Active” throughout. Besides, the values for the Ki (on Histamine H1 receptor; in data set [6]) were 3.15 µM and 3.276 µM, respectively.

Molecule `Fc1ccc2c(C3CCN(CCCOc4ccc(-c5nc6ccccc6o5)cc4)CC3)noc2c1` came in with a Ki in data set [6] of 0.095 µM. In other words, the double-digit nanomolar range.
